From EPA's ToxValDB 9.5 (doi:10.2903/j.efsa.2015.3936)

How the values were obtained:
[1] = system: Typhlodromus pyri; assay: LR50; higher = less toxic; conditions: other; mortality
[2] = system: Aphidius rhopalosiphi; assay: LR50; higher = less toxic; conditions: other; mortality
[3] = system: Daphnia magna; conditions: chronic/long-term; duration: 21 days; reproduction
[4] = system: Folsomia candida; conditions: chronic/long-term; duration: 28 days
[5] = system: Rattus norvegicus; conditions: for NOAEL: chronic
[6] = system: Apis mellifera; conditions: acute, mortality
[7] = system: Tagia sp.
[8] = system: Oncorhynchus mykiss; conditions: chronic/long-term; duration: 21 days; growth
[9] = system: Anas platyrhynchos
[10] = system: Oryctolagus sp.; conditions: developmental; development

Molecule `COC(=O)c1ccccc1S(=O)(=O)NC(=O)Nc1nc(C)nc(OC)n1` [Metsulfuron-methyl] has an LR50 [1] of over 8 g/ha, an LR50 [2] of over 8 g/ha and an NOEC [3] of 3.13 mg/L. The NOEC [4] was at least 250 mg/kg, the LD50 ([5]; acute, oral, mortality) was over 5000 mg/kg-day and the NOAEL [5] was 25 mg/kg-day. For the same molecule, the NOAEL ([5]; duration: 2 years, body weight) was 22.4 mg/kg-day, the LD50 ([6]; dermal) was over 50 µg/piece and the LD50 ([6]; oral, unspecified) was over 44.3 µg/piece. It also gave an LC50 ([7]; acute, duration: 14 days, mortality) of over 1000 mg/kg, an NOEC ([7]; chronic/long-term, duration: 56 days) of 0.83 mg/kg and an NOEC [8] of 68 mg/L. It also gave an LD50 ([9]; acute, oral, unspecified) of over 2510 mg/kg-day, an NOAEL ([9]; reproductive) of 100 mg/kg-day and an LC50 ([9]; short-term, oral, feed) of over 1280 mg/kg-day. For the same molecule, the NOAEL [10] was 25 mg/kg-day.
